Columns and labels:
[1] = test system: MDA-MB-231 human breast cancer cells; test: MDA-MB-231 breast tumour xenograft in CD-1 nude mice, combination with taxol or doxorubicin (1.7); type: in vivo, human cells in mice; settings: MDA-MB-231 (breast), CD-1; SEQ ID NO:1 10 mg/kg i.v. every other day; Taxol 10 mg/kg i.v. weekly; doxorubicin 5 mg/kg i.v. weekly
Method: After 52 days the mice were sacrificed and the tumours weighed. […] Mitoxantrone was administered intravenously once at the beginning of the treatments at a dose of 2 mg/kg (FIG. 4A) or once a week for four weeks at a reduced dose of 0.8 mg/kg (FIG. 4B). All treatments were stopped at day 50 (FIG. 4A) or 48 (FIG. 4B), respectively. […] Mitoxantrone was administered intravenously once at the beginning of the treatments at a dose of 2 mg/kg (FIG. 5A) or once a week for four weeks at a reduced dose of 0.8 mg/kg (FIG. 5B). All treatments were stopped at day 42 (FIG. 5A) or 38 (FIG. 5B), respectively. […] A2058 is a metastatic melanoma cell line. […] All treatments were stopped at day 24. […] Taxol was administered intravenously once a week at a dose of 10 mg/kg for three (FIG. 7A) or four weeks (FIG. 7C). Doxorubicin was administered intravenously once a week at a dose of 5 mg/kg for first three weeks (FIG. 7A) or for two weeks (FIG. 7C). All treatments were stopped at day 33 (FIG. 7A) or at day 26 (FIG. 7C), respectively. […] In FIG. 7C, antitumour activities were estimated by the inhibition of tumour volume, which was measured with calipers. Each point represents mean tumour volume calculated from 10 animals per experimental group. […] Taxol was administered intravenously once a week for first three weeks and intraperitoneally once a week for next two weeks at a dose of 10 mg/kg. Cisplatin was administered intravenously once a week for first three weeks and intraperitoneally once a week for next two weeks at a dose of 4 mg/kg. All treatments were stopped at day 40. Antitumour activities were estimated by the inhibition of tumour volume, which was measured with caliper. Each point represents mean tumour volume calculated from 9 animals per experimental group.

[2] = test system: Hela S3 human cervix epitheloid carcinoma cells; test: Hela S3 hydroxyurea resistant cervix carcinoma xenograft in SCID mice; type: in vivo, human cells in mice
Method: BxPC-3 is a gemcitabine resistant call line. […] Gemcitabine was administered intravenously every three days at a dose of 100 mg/kg. Antitumour activities were estimated by the inhibition of tumour volume, which was measured with caliper. Each point represents mean tumour volume calculated from 10 animals per experimental group. […] Hela S3 is a hydroxyurea resistant cell line. […] Hydroxyurea was administered intraperitoneally every day at a dose of 250 mg/kg for 10 days. Cisplatin was administered intravenously once a week for three weeks at a dose of 4 mg/kg. Antitumour activities were estimated by the inhibition of tumour volume, which was measured with caliper. Each point represents mean tumour volume calculated from 10 animals per experimental group. […] Cisplatin was administered intravenously once a week for three weeks at a dose of 4 mg/kg. Taxol was administered intravenously once a week for three weeks at a dose of 10 mg/kg. Antitumour activities were estimated by the inhibition of tumour volume, which was measured with caliper. Each point represents mean tumour volume calculated from 10 animals per experimental group. […] Taxol was administered i.p. once a week at a dose of 10 mg/kg. Antitumour activities were estimated by the inhibition of tumour volume (FIG. 12A), which was measured with calipers. Each point represents mean tumour volume calculated from 10 animals per experimental group. Animals were sacrificed and tumour weights taken at the end of the study (FIG. 12C). […] The effects of combined treatment were greater than either treatment alone. […] Cisplatin was administered intravenously once a week for four weeks at a dose of 4 mg/kg. Taxol was administered intravenously once a week for four weeks at a dose of 20 mg/kg. Antitumour activities were estimated by the inhibition of tumour volume, which was measured with caliper. Each point represents mean tumour volume calculated from 9-10 animals per experimental group. […] Cisplatin was administered intravenously once a week for four weeks at a dose of 4 mg/kg. Antitumour activities were estimated by the inhibition of tumour volume, which was measured with caliper. Each point represents mean tumour volume calculated from 10 animals per experimental group. At the end of the study the animals were sacrificed and tumours weighed. […] Taxol was administered i.p. once a week at a dose of 10 mg/kg. Anti-tumour activity was estimated by the inhibition of tumour volume, which was measured with caliper. Each point represents mean tumour volume calculated from 10 animals per experimental group. In addition animals were sacrificed and tumour weights taken at the end of the study. […] CPT-11 was administered i.p. for 5 days at a dose of 20 mg/kg/day. Antitumour activities were estimated by the inhibition of tumour volume, which was measured with caliper. Each point represents mean tumour volume calculated from 10 animals per experimental group. Tumour weights were measured after animals were sacrificed at the end of the treatment. These cells are not resistant to CPT-11 which was used as a positive control.

Row | SMILES | Tumour weight as % of saline control [1] | Tumour weight as % of saline control ([2]; Hela S3 (cervix), hydroxyurea resistant, SCID, SEQ ID NO:1 10 mg/kg i.v. every other day 6 times, Hydroxyurea 250 mg/kg i.p. daily 10 days, Cisplatin 4 mg/kg i.v. weekly x3) | Antitumour effect (tumour volume, FIG. 10) ([2]; Hela S3 hydroxyurea resistant, SCID mice, SEQ ID NO:1 10 mg/kg i.v. every other day, Hydroxyurea 250 mg/kg i.p. daily, Cisplatin 4 mg/kg i.v. weekly)
1 | COc1cccc2c1C(=O)c1c(O)c3c(c(O)c1C2=O)C[C@@](O)(C(=O)CO)C[C@@H]3O[C@H]1C[C@H](N)[C@H](O)[C@H](C)O1 [Doxorubicin] | 41% | – | –
2 | NC(=O)NO [Hydroxyurea (HU), Hydroxyurea, reference compound] | – | 92% | ineffective against Hydroxyurea-resistant tumour

Source: patent US7968526B2, “Antisense oligonucleotides directed to ribonucleotide reductase R2 and uses thereof in the treatment of cancer” (Lorus Therapeutics Inc., priority 2003, dated 2011)
